# Test results reported in US12679824B2 (Hoffmann-La Roche Inc., priority 2020, dated 2026).
# Test system: Acinetobacter baumannii ATCC17961
# Experiment: 90% Growth Inhibitory Concentration (IC90) determination, antimicrobial susceptibility testing
# Format: cell-based
# Details: Acinetobacter baumannii, ATCC17961, 16 h, Acinetobacter baumannii ATCC17961; Iso-Sensitest broth; growth by optical density at 600 nm over 16h; concentration inhibiting 90% of the growth; read-out: ATCC 17961 IC90
# Outline: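 Broth microdilution in Iso-Sensitest medium, compounds twofold diluted (e.g. 50–0.097 μM final), inoculum ~5×10^(5) CFU/ml, 35±2° C. OD600 was read every 20 min over 16 h. IC90 was derived from growth inhibition during logarithmic growth.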
row,IC90 [nM],Structure (SMILES)
1,690,"Cn1c(-c2cn(-c3ccc(N)cn3)nc2C(F)(F)F)cnc1C(=O)Nc1ccc(C(=O)NCCCNC(=O)[C@@H]2C[C@@H](O)CN2)c(Cl)c1 [Example Z26, 5-[1-(5-amino-2-pyridyl)-3-(trifluoromethyl)pyrazol-4-yl]-N-[3-chloro-4-[3-[[(2S,4R)-4-hydroxyprolyl]amino]propylcarbamoyl]phenyl]-1-methyl-imidazole-2-carboxamide]"
2,1800,"Cn1c(-c2cn(-c3ccc(N)cn3)nc2C(F)(F)F)cnc1C(=O)Nc1ccc(C(=O)NC2(CO)CCNC2)c(Cl)c1 (centres unmarked) [Example Z5, 5-[1-(5-amino-2-pyridyl)-3-(trifluoromethyl)pyrazol-4-yl]-N-[3-chloro-4-[(3-methylolpyrrolidin-3-yl)carbamoyl]phenyl]-1-methyl-imidazole-2-carboxamide]"
3,330,"Cn1c(-c2cn(-c3ccc(N)cn3)nc2C(F)(F)F)cnc1C(=O)Nc1ccc(C(=O)N2CCC(N)CC2)c(Cl)c1 [Example Z20, N-[4-(4-aminopiperidine-1-carbonyl)-3-chloro-phenyl]-5-[1-(5-amino-2-pyridyl)-3-(trifluoromethyl)pyrazol-4-yl]-1-methyl-imidazole-2-carboxamide]"
4,7000,"COc1nn(-c2ccc(N)cn2)cc1-c1cnc(C(=O)Nc2ccc(C(=O)N3CCN(C(=O)C4CCN(C)CC4)CC3)c(Cl)c2)n1C [Example C10, 5-[1-(5-amino-2-pyridyl)-3-methoxy-pyrazol-4-yl]-N-[3-chloro-4-[4-(1-methylpiperidine-4-carbonyl)piperazine-1-carbonyl]phenyl]-1-methyl-imidazole-2-carboxamide]"
5,250,"COc1ccnc(-n2cc(-c3cnc(C(=O)Nc4ccc(C(=O)N5CCN(C(=O)C6CCNCC6)CC5)c(Cl)c4)n3C)c(C(F)(F)F)n2)c1 [Example A12, N-[3-chloro-4-[4-(piperidine-4-carbonyl)piperazine-1-carbonyl]phenyl]-5-[1-(4-methoxy-2-pyridyl)-3-(trifluoromethyl)pyrazol-4-yl]-1-methyl-imidazole-2-carboxamide]"
6,1160,"Cn1c(-c2cn(-c3ccc(N)cn3)nc2C(F)(F)F)cnc1C(=O)Nc1ccc(C(=O)N2C[C@H]3C[C@@H]2CN3)c(Cl)c1 [Example Z66, 5-[1-(5-amino-2-pyridyl)-3-(trifluoromethyl)pyrazol-4-yl]-N-[3-chloro-4-[(1R,4R)-2,5-diazabicyclo[2.2.1]heptane-2-carbonyl]phenyl]-1-methyl-imidazole-2-carboxamide]"
7,780,"Cn1c(-c2cn(-c3ccc(N)cn3)nc2C(F)(F)F)cnc1C(=O)Nc1ccc(C(=O)NCCOCCNC(=O)[C@@H]2C[C@@H](O)CN2)c(Cl)c1 [Example Z40, 5-[1-(5-amino-2-pyridyl)-3-(trifluoromethyl)pyrazol-4-yl]-N-[3-chloro-4-[2-[2-[[(2S,4R)-4-hydroxyprolyl]amino]ethoxy]ethylcarbamoyl]phenyl]-1-methyl-imidazole-2-carboxamide]"
8,470,"COCCn1ncc(-n2cc(-c3cnc(C(=O)Nc4ccc(C(=O)N5CCN(C(=O)C6CCNCC6)CC5)c(Cl)c4)n3C)c(C(F)(F)F)n2)c1C [Example E2, N-[3-chloro-4-[4-(piperidine-4-carbonyl)piperazine-1-carbonyl]phenyl]-5-[1-[1-(2-methoxyethyl)-5-methyl-pyrazol-4-yl]-3-(trifluoromethyl)pyrazol-4-yl]-1-methyl-imidazole-2-carboxamide]"
9,580,"Cn1c(-c2cn(-c3ccc(N)cn3)nc2C(F)(F)F)cnc1C(=O)Nc1ccc(C(=O)N2CC[C@@H](CNC(=O)[C@@H]3C[C@@H](O)CN3)C2)c(Cl)c1 [Example Z39, 5-[1-(5-amino-2-pyridyl)-3-(trifluoromethyl)pyrazol-4-yl]-N-[3-chloro-4-[(3S)-3-[[[(2S,4R)-4-hydroxyprolyl]amino]methyl]pyrrolidine-1-carbonyl]phenyl]-1-methyl-imidazole-2-carboxamide]"
10,260,"Cn1c(-c2cn(-c3ccc(N)cn3)nc2C(F)(F)F)cnc1C(=O)Nc1ccc(C(=O)N2CCN(C(=O)CN3CCC(O)C3)CC2)c(Cl)c1 (centres unmarked) [Example C16, 5-[1-(5-amino-2-pyridyl)-3-(trifluoromethyl)pyrazol-4-yl]-N-[3-chloro-4-[4-[2-(3-hydroxypyrrolidin-1-yl)acetyl]piperazine-1-carbonyl]phenyl]-1-methyl-imidazole-2-carboxamide]"
11,300,"Cn1c(-c2cn(-c3ccc(N)cn3)nc2C(F)(F)F)cnc1C(=O)Nc1ccc(C(=O)N[C@@H]2COC3(C2)CN(C(=O)[C@@H]2C[C@@H](O)CN2)C3)c(Cl)c1 [Example Z41, 5-[1-(5-amino-2-pyridyl)-3-(trifluoromethyl)pyrazol-4-yl]-N-[3-chloro-4-[[(7S)-2-[(2S,4R)-4-hydroxyprolyl]-5-oxa-2-azaspiro[3.4]octan-7-yl]carbamoyl]phenyl]-1-methyl-imidazole-2-carboxamide]"
12,820,"Cn1c(-c2cn(-c3ccc(N)cn3)nc2C(F)(F)F)cnc1C(=O)Nc1ccc(C(=O)N2CCN(C(=O)[C@@H]3COCCN3)CC2)c(Cl)c1 [Example C8, 5-[1-(5-amino-2-pyridyl)-3-(trifluoromethyl)pyrazol-4-yl]-N-[3-chloro-4-[4-[(3S)-morpholine-3-carbonyl]piperazine-1-carbonyl]phenyl]-1-methyl-imidazole-2-carboxamide]"
13,910,"Cc1c[nH]nc1-n1cc(-c2cnc(C(=O)Nc3ccc(C(=O)N4CCN(C(=O)C5CCN(C)CC5)CC4)c(Cl)c3)n2C)c(C(F)(F)F)n1 [Example C15, N-[3-chloro-4-[4-(1-methylpiperidine-4-carbonyl)piperazine-1-carbonyl]phenyl]-1-methyl-5-[1-(4-methyl-1H-pyrazol-3-yl)-3-(trifluoromethyl)pyrazol-4-yl]imidazole-2-carboxamide]"
14,950,"Cn1c(-c2cn(-c3ccc(N)cn3)nc2C(F)(F)F)cnc1C(=O)Nc1ccc(C(=O)N[C@H]2C[C@@H](N)C2)c(Cl)c1 [Example Z11, N-[4-[cis-(3-aminocyclobutyl)carbamoyl]-3-chloro-phenyl]-5-[1-(5-amino-2-pyridyl)-3-(trifluoromethyl)pyrazol-4-yl]-1-methyl-imidazole-2-carboxamide]"
15,1000,"Cn1c(-c2cn(-c3ncc(N)cn3)nc2C(F)(F)F)cnc1C(=O)Nc1ccc(C(=O)N2CCN(C(=O)C3CCNCC3)CC2)c(Cl)c1 [Example A5, 5-[1-(5-aminopyrimidin-2-yl)-3-(trifluoromethyl)pyrazol-4-yl]-N-[3-chloro-4-[4-(piperidine-4-carbonyl)piperazine-1-carbonyl]phenyl]-1-methyl-imidazole-2-carboxamide]"
16,460,"Cn1c(-c2cn(-c3ccc(N)cn3)nc2C(F)(F)F)cnc1C(=O)Nc1ccc(C(=O)N2CCC(NC(=O)[C@@H]3C[C@@H](O)CN3)CC2)c(Cl)c1 [Example Z24, 5-[1-(5-amino-2-pyridyl)-3-(trifluoromethyl)pyrazol-4-yl]-N-[3-chloro-4-[4-[[(2S,4R)-4-hydroxyprolyl]amino]piperidine-1-carbonyl]phenyl]-1-methyl-imidazole-2-carboxamide]"
17,400,"Cn1c(-c2cn(-c3ccc(N)cn3)nc2C(F)(F)F)cnc1C(=O)Nc1ccc(C(=O)N2CCCNCC2)c(Cl)c1 [Example Z60, 5-[1-(5-amino-2-pyridyl)-3-(trifluoromethyl)pyrazol-4-yl]-N-[3-chloro-4-(1,4-diazepane-1-carbonyl)phenyl]-1-methyl-imidazole-2-carboxamide]"
